Test results taken from patent publication US20190211317A1, “PEPTIDES AND NANOPARTICLES FOR INTRACELLULAR DELIVERY OF GENOME-EDITING MOLECULES” (Aadigen, LLC, priority 2016, published 2019).
Values joined by “and” are separate entries in the source; they are usually repeats but may differ in a detail not shown here. Identical values can stand only once. Non-standard residues stand in square brackets, D forms with d. Residues, ends and D or L forms follow the SMILES beside them. βAla = NCCC(=O)O

How the values were obtained:
[1] = tested on: primary human T cells; test: CAS9 protein expression in primary human T cells after CAS9 mRNA or plasmid delivery (ELISA); format: cell-based; conditions: day 3
Description: T cells were isolated from PBMCs using anti-CD3/anti-CD28 antibodies bound to paramagnetic beads (Dynabeads ClinExVivo CD3/CD28, Invitrogen) at a ratio of 3:1 (beads:cells). The cells and beads were co-incubated for 2 hours at room temperature and CD3^+ cell enrichment was performed using Dynal ClinExVIVO MPC magnet (Thermo Fisher). The anti-CD3/anti-CD28 paramagnetic beads were removed, washed and concentrated. Cells in the CD3^+ fraction were resuspended in activation media at a concentration of 1×10^6 cells/ml with AIM-V medium (Thermo Fishers) supplemented with 10% fetal calf serum, 300 IU/ml IL2 and 50 ng/ml OKT3 (MuromonAB-CD3) for two days.
CPP/CAS9 complexes were formed by mixing the CAS9 mRNA (0.5 μg) with CPP at a 20:1 molar ratio of CPP:CAS9 mRNA and incubating for 30 min at 37° C. prior to cell transfection. CPP/CAS9-expressing plasmid complexes were formed by mixing the CAS9-expressing plasmid (Addgene MLM3639-Plasmid #42252) (0.5 μg) with CPP at a 20:1 molar ratio of CPP:plasmid and incubating for 30 min at 37° C. prior to cell transfection.
Cells were transfected according to the protocol for suspension cells described in Example 13a. RNAiMAX and lipofectamine 2000 lipid-based delivery methods (Invitrogen Thermo Fisher France) were used as controls, and transfections were performed following the manufacturer's instructions. CAS9 protein expression level was analyzed at multiple time points over a period of 10 days as determine by ELISA on protein extracts using antibodies against CRISPR/Cas9 obtained from Diagenode (Diagenode cat. No. C15200223) and ABCAM (clone 7A9-ab191468).

[2] = tested on: PCSK9; test: In vivo CAS9 mRNA/gRNA targeting PCSK9: serum PCSK9 (ELISA); design: species or system mouse
Description: Polyadenylated and capped CAS9 mRNA was obtained from ThermoFisher, and gRNA (5 μg) targeting PCSK9 Exon 1 was obtained from Eurogentec. […] Free CAS9 mRNA/gRNA was injected as a control.
Blood samples were collected by saphenous vein bleeds at multiple time points (day 3, 6, 10, and 21), collecting no more than 100 μl or 10% of total blood volume per week. Serum levels of PCSK9 were determined by ELISA using the Mouse Proprotein Convertase 9/PCSK9 Quantikine ELISA Kit (MPC-900, R&DSystems).

[3] = tested on: endogenous EMX1 gene in U2OS, HEPG2, K562 cells and primary human fibroblasts; test: EMX1 editing from CPP delivery of CAS9 protein/gRNA (T7E1); format: cell-based; conditions: each of the cell types tested; 2.5 μg/5 μg CAS9/gRNA
Description: CPP/CAS9/gRNA complexes were prepared by mixing preloaded CAS9/gRNA complexes (2.5 μg/5 μg CAS9/gRNA) with CPP peptides at a 20:1 molar ratio of CPP to cargo and incubating for 30 min at 37° C. prior to cell transfection. Cells were transfected according to the protocols described in Example 13a, and RNAiMAX-mediated delivery (Invitrogen Thermo Fisher France) was used as a control. EMX1 gene editing was analyzed at day 3 and day 6 by T7E1 assay and quantified using a Fragment Analyzer System.

[4] = tested on: U2OS, HEPG2, K562 cells and primary human fibroblasts; test: CAS9 protein expression after CPP delivery of CAS9 mRNA (ELISA); format: cell-based; conditions: day 3
Description: CPP/CAS9 mRNA complexes were formed by mixing the CAS9 mRNA (0.5 μg) with CPP at a 20:1 molar ratio of CPP:CAS9 mRNA and incubating for 30 min at 37° C. prior to cell transfection. Cells were transfected according to optimized protocols for either adherent or suspension cell lines.
Human primary fibroblasts were freshly obtained and grown in flasks pre-coated with a gelatin-based coating solution and incubated in Culture Complete Growth Medium for 3 days before expansion and treatment. U2OS cells were cultured in Dulbecco's Modified Eagle's Medium (DMEM), supplemented with 2 mM glutamine, 1% antibiotics (streptomycin 10,000 μg/mL, penicillin, 10,000 IU/mL) and 10% (w/v) foetal calf serum (FCS), at 37° C. in a humidified atmosphere containing 5% CO2. 35 mm dishes seeded with 150,000 cells the day prior to transfection were grown to 50-60% confluence and set up to be at about 70% confluences at the time of transfection. Before transfection, cells were washed with DMEM (2×) followed by PBS (1×). Cells were then overlaid with 0.2 ml of complex solution (16 μl CPP/Cargo complex in water+184 μl OPTiMEM without antibiotics), mixed gently, and incubated for 10 min at 37° C. 0.8 mL of fresh OPTiMEM or DMEM was then added and cells were incubated for 20 min at 37° C. 2 mL of complete OPTiMEM (high glucose) or DMEM containing 11.4% FCS was then added in order to reach a final FCS concentration of 10%, without removing the overlay of CPP/Cargo complexes. Cells were returned to the incubator (37° C., 5% CO2) and assayed at 72 hours post transfection.
K562 and HEpG2 cells were set up to be at about 70% confluence at the time of transfection. The cells were maintained in high glucose DMEM media with 10% serum. Before transfection, cells were harvested by centrifugation, then washed with DMEM (2×) followed by PBS (1×). Cells were then resuspended in 0.2 ml of complex solution (16 μl CPP/Cargo complex in water+184 μl OPTiMEM without antibiotics), mixed gently, and incubated for 10 min at 37° C. 0.8 mL of fresh OPTiMEM was then added and cells were incubated for 20 min at 37° C. 2 mL of complete OPTiMEM (high glucose) containing 11.4% FCS was then added in order to reach a final FCS concentration of 10%, without removing the overlay of CPP/Cargo complexes. Cells were returned to the incubator (37° C., 5% CO2) and assayed at 72 hours post transfection.
RNAiMAX lipid-based delivery (Invitrogen Thermo Fisher France) was used as a control and transfections were performed following the manufacturer's instructions. CAS9 expression level was analyzed at multiple time points over a period of 10 days as determined by ELISA on protein extracts using antibodies against CRISPR/Cas9 obtained from Diagenode (Diagenode cat. No. C15200223) and ABCAM (clone 7A9-ab191468).

[5] = tested on: endogenous EMX1 gene in primary human T cells; test: EMX1 editing in primary human T cells with CAS9 mRNA, protein or plasmid plus gRNA (T7E1); format: cell-based
Description: CPP/CAS9 mRNA/gRNA complexes were formed by mixing the CAS9 mRNA (0.5 μg) and gRNA (5 μg) with CPP at a 20:1 molar ratio of CPP to nucleic acid (mRNA+gRNA) and incubating for 30 min at 37° C. prior to cell transfection. CPP/plasmid/gRNA complexes were formed by mixing CAS9 expressing plasmid (Addgene MLM3639-Plasmid #42252) (0.5 μg) and gRNA (5 μg) with CPP at a 20:1 molar ratio of CPP to nucleic acid (plasmid+gRNA) and incubating for 30 min at 37° C. prior to cell transfection. CPP/CAS9/gRNA complexes were formed by mixing preloaded CAS9/gRNA complexes (2.5 μg/5 μg CAS9/gRNA) with CPP at a 20:1 molar ratio of CPP to complex and incubating for 30 min at 37° C. prior to cell transfection.
T cells were transfected according to the protocol for suspension cells described in Example 13a. Lipofectamine 2000- and RNAiMAX-mediated delivery methods (Invitrogen Thermo Fisher France) were included as controls. EMX1 gene editing was analyzed at day 3, day 6, and day 10 by T7E1 assay and quantified using a Fragment Analyzer System.

[6] = tested on: Swiss mice; test: In vivo delivery of CAS9 mRNA by three CPPs: CAS9 expression in tissues (ELISA); design: species or system mouse; conditions: for ELISA signal for CAS9 protein expression: day 3 and day 6, CAS9 mRNA 5 μg i.v., 20:1; for CAS9 protein expression: other tissues examined
Description: Free CAS9 mRNA in physiological buffer was injected as a control.
At day 3, day 6, and day 10 following injection, animals were sacrificed and tissues including lung, liver, brain, kidney, heart, spleen, blood, pancreas, muscle, bone marrow, and intestine were collected. Tissues were homogenized and CAS9 protein levels in protein extracts were analyzed by ELISA using an antibody against CRISPR/Cas9 (SBI clone 7A9).

[7] = tested on: U2OS and HEPG2 cell lines and primary human fibroblasts; test: CAS9 protein expression after CPP delivery of CAS9-expressing plasmid (ELISA); format: cell-based; conditions: day 6
Description: CPP/plasmid complexes were prepared by mixing 0.5 μg of a CAS9-expressing plasmid (Addgene MLM3639-Plasmid #42252) with CPP at a 20:1 molar ratio of CPP:cargo and incubating for 30 min at 37° C. prior to cell transfection. Cells were transfected according to the protocols for adherent and suspension cells described in Example 13a. Lipofectamine 2000 was used as lipid-based delivery control. CAS9 protein expression level was analyzed at multiple time points over a period of 10 days as determined by ELISA on protein extracts using antibodies against CRISPR/Cas9 obtained from Diagenode (Diagenode cat. No. C15200223) and ABCAM (clone 7A9-ab191468).

[8] = tested on: EGFP reporter gene in EGFP-U2OS, EGFP-HEK, EGFP-JURKAT cells; test: EGFP reporter gene disruption from CPP delivery of CAS9:sgRNA (flow cytometry); format: cell-based, human; conditions: for reduction of EGFP-positive cells: EGFP-JURKAT; for decrease in EGFP expression: CAS9:gRNA 50 nM, CPP:cargo 20:1; for reduction of EGFP-expressing cells / loss of EGFP expression: JURKAT; for reduction of EGFP-expressing cells / loss of EGFP expression / loss of EGFP expression: 1 nM CAS9:gRNA; for loss of EGFP expression: both cell lines (U2OS, HEK);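 as to all read-outs here: cells carrying one integrated EGFP reporter received peptide-complexed CAS9 preloaded 1:1 with EGFP sgRNA, cultured 72 h, then EGFP level read by flow cytometry, lipofectamine 2000 and RNAiMAX as positive controls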
Description: Efficacy of CPP-mediated delivery was quantified using a well-established CAS9-induced gene disruption method (Fu et al, 2013, supra), by targeting a specific site in the exogenous EGFP gene reporter in three human cell lines expressing EGFP (GFP-U2OS, EGFP-HEK, EGFP-JURKAT).
Stock solutions of amphipathic peptides were prepared at 1 mg/mL in distilled water and sonicated for 10 min. CAS9 protein was preloaded with purified EGFP sgRNA at a molar ratio of 1:1 and incubated for 10 min prior to forming complexes with the peptides. Preloaded CAS9/gRNA complexes (10 nM, 25 nM, and 50 nM) were mixed with CPPs at 5:1, 10:1 and 20:1 molar ratios of CPP to cargo and incubated for 30 min at 37° C. prior to cell transfection.
Cell line containing a single integrated EGFP reporter gene (GFP-U2OS, EGFP-HEK and EGFP-JURKAT) were cultured in Dulbecco's Modified Eagle's Medium (DMEM), supplemented with 2 mM glutamine, 1% antibiotics (streptomycin 10,000 μg/mL, penicillin, 10,000 IU/mL) and 10% (w/v) foetal calf serum (FCS) at 37° C. in a humidified atmosphere containing 5% CO2. A total of 150,000 cells seeded in a 35 mm dish the day prior to transfection were grown to 50-60% confluence and overlaid with 200 μl of preformed complexes, incubated for 3-5 min, then 400 μl of DMEM was added. After 30 min incubation at 37° C., 1 mL of fresh DMEM containing 16% FCS was added to reach a final FCS concentration of 10%, without removing the overlay of CPP/CAS9-gRNA complexes. Cells were returned to the incubator for 72 hours.
CAS9-induced double-strand break formation was analyzed using flow cytometry by monitoring level of EGFP expression. […] Both lipofectamine 2000 and RNAiMAX delivery methods were used as positive controls.

[9] = Particle size, polydispersity and zeta potential with different cargoes (Zetasizer NANO ZS P); format: physicochemical; conditions: 20:1; for formation of stable nanoparticles: with CAS9-mRNA and CAS9-mRNA/gRNA complex
Description: The CPP/CAS9-protein, CPP/CAS9-protein/sgRNA, CPP/CAS9-mRNA, CPP/CAS-mRNA/sgRNA particles were characterized; the mean size, polydispersity, and zeta potential were measured with a Zetasizer NANO ZS P apparatus (Malvern Ltd).
The mean size and the polydispersity of the CCP/cargo complexes were determined at 25° C. for 5 min per measurement and zeta potential was measured with a Zetasizer NANO ZS P apparatus (Malvern Ltd).

[10] = tested on: endogenous EMX1 gene in U2OS, HEPG2, K562 cells and primary human fibroblasts; test: EMX1 editing from CPP delivery of CAS9 mRNA/gRNA (T7E1); format: cell-based
Description: CPP/CAS9 mRNA/gRNA complexes were formed by mixing the CAS9 mRNA (0.5 μg) and gRNA (5 μg) with CPP at a 20:1 molar ratio of CPP:cargo and incubating for 30 min at 37° C. prior to cell transfection. Suspension and adherent cells were transfected according to the protocols described in Example 13a. RNAiMAX-mediated delivery (Invitrogen Thermo Fisher France) was used as a control. EMX1 gene editing was analyzed at day 3 and day 6 by T7E1 assay and quantified using a Fragment Analyzer System.

[11] = CPP/CAS9 and CPP/CAS9:gRNA particle size, polydispersity, zeta potential (Zetasizer 4); format: physicochemical
Description: The CPP/CAS9 and CPP/CAS9/sgRNA particles were further characterized; the mean size, polydispersity and zeta potential were measured with Zetasizer 4 apparatus (Malvern Ltd). […] The mean size and the polydispersity of the CCP/CAS9 and CCP/CAS9:gRNA complexes were determined at 25° C. for 3 min per measurement and zeta potential was measured with Zetasizer 4 apparatus (Malvern Ltd).

[12] = tested on: endogenous EMX1 gene in U2OS, HEPG2 cells and primary human fibroblasts; test: EMX1 editing from CPP delivery of CAS9-expressing plasmid and gRNA (T7E1); format: cell-based; conditions: the three cell types
Description: EMX1-targeting gRNAs were prepared as described above. CPP/plasmid/gRNA complexes were prepared by mixing 0.5 μg of a CAS9-expressing plasmid (Addgene MLM3639-Plasmid #42252) and 5 μg gRNA with CPP at a 20:1 molar ratio of CPP to nucleic acid (plasmid+gRNA) and incubating for 30 min at 37° C. prior to cell transfection. Suspension and adherent cells were transfected according to the protocols described in Example 13a. Lipofectamine 2000- and RNAiMAX-mediated delivery methods (Invitrogen Thermo Fisher France) were used as controls. EMX1 gene editing was analyzed at day 3 and day 6 by T7E1 assay and quantified using a Fragment Analyzer System.

[13] = tested on: endogenous EMX1 gene in U2OS, JURKAT and K562 cells; test: EMX1 gene editing from CPP delivery of CAS9/gRNA (T7E1 assay); format: cell-based, human
Description: RNAiMAX delivery was used as a positive control as it was previously reported to show better results than Lipofectamine 2000 (Zuris et al., 2015, supra). […] Cells were returned to the incubator for 72 hours.

[14] = tested on: endogenous EMX1 and exogenous EGFP reporter genes in GFP-U2OS, EGFP-JURKAT cells; test: Delivery of multiple RGEN/gRNA complexes: EMX1 and EGFP editing; format: cell-based, human
Description: RNAiMAX delivery was used as positive control. Cells were treated as described previously and CAS9-induced NHEJ analyzed 72 hr after transfection. […] The deletion (indel) frequency in the EMX1 gene was quantified using the T7E1 assay and loss of EGFP expression was monitored by flow cytometry. Data for on-target mutations induced by RGEN/gRNA are reported as an average of 3 separate experiments.

[15] = day 1, CAS9 mRNA 5 μg/gRNA 5 μg single i.v.
[16] = CAS9-expressing plasmid and gRNA, day 3
[17] = with CAS9-mRNA and CAS9-mRNA/gRNA

CC(C)C[C@H](NC(=O)CCN)C(=O)N[C@@H](Cc1c[nH]c2ccccc12)C(=O)N[C@@H](CCCNC(=N)N)C(=O)N[C@@H](C)C(=O)N[C@@H](CC(C)C)C(=O)N[C@@H](Cc1c[nH]c2ccccc12)C(=O)N[C@@H](CCCNC(=N)N)C(=O)N[C@@H](CC(C)C)C(=O)N[C@@H](Cc1c[nH]c2ccccc12)C(=O)N[C@@H](CCCNC(=N)N)C(=O)N[C@@H](CO)C(=O)N[C@@H](CC(C)C)C(=O)N[C@@H](Cc1c[nH]c2ccccc12)C(=O)N[C@@H](CCCNC(=N)N)C(=O)N[C@@H](CC(C)C)C(=O)N[C@@H](CC(C)C)C(=O)N[C@@H](Cc1c[nH]c2ccccc12)C(=O)N[C@@H](CCCCN)C(=O)N[C@@H](C)C(=O)O [VEPEP-6] (H-[βAla]LWRALWRLWRSLWRLLWKA-OH; N-terminus and C-terminus assumed)
ELISA signal for CAS9 protein expression ([1]; CAS9-expressing plasmid 0.5 μg): little to no CAS9 expression
ELISA signal for CAS9 protein expression ([1]; CAS9 mRNA 0.5 μg): ~17 times the background
decrease of serum levels of PSCK9 [2, 15]: 64%
decrease of serum levels of PSCK9 ([2]; day 3): 73%
decrease of serum levels of PSCK9 ([2]; day 6): 75%
decrease of serum levels of PSCK9 ([2]; day 10): 73%
decrease of serum levels of PSCK9 ([2]; day 14): 71%
decrease of serum levels of PSCK9 ([2]; day 20): 70%
mean indel frequencies [3]: no significant EMX1 gene editing
ELISA signal for CAS9 protein expression ([4]; U2OS, K562, HepG2, CAS9 mRNA 0.5 μg): ~30 times the background
ELISA signal for CAS9 protein expression ([4]; primary human fibroblasts): about 20 times the background
mean indel frequencies [5, 16]: little to no EMX1 gene editing
mean indel frequencies ([5]; CAS9 protein/gRNA): little to no EMX1 gene editing
CAS9 expression ([6]; day 10, brain): CAS9 expression was observed
CAS9 expression ([6]; day 10, liver): CAS9 expression was observed
CAS9 expression ([6]; day 10, lung): CAS9 expression was observed
ELISA signal for CAS9 protein expression ([6]; liver): > 15 times that of background
CAS9 expression ([6]; lung): about 8 times that of background
CAS9 protein expression [6]: Little to no increase
ELISA signal for CAS9 protein expression ([7]; U2OS and HEPG2): about 4 times the background
ELISA signal for CAS9 protein expression ([7]; primary human fibroblasts): about 2 times the background
reduction of EGFP-positive cells [8]: no significant change
decrease in EGFP expression ([8]; HEK): 30%
reduction of EGFP-expressing cells / loss of EGFP expression [8]: no change in EGFP expression
decrease in EGFP expression ([8]; U2OS): 25%
loss of EGFP expression [8]: no change in EGFP expression
formation of stable nanoparticles [9]: able to form stable nanoparticles
Mean diameter [9, 17]: ~100 nm
polydispersity index (PI) [9, 17]: 0.2
mean indel frequencies [10]: about 60%

CC(C)C[C@H](NC(=O)CCN)C(=O)N[C@@H](CCCNC(=N)N)C(=O)N[C@@H](Cc1c[nH]c2ccccc12)C(=O)N[C@@H](Cc1c[nH]c2ccccc12)C(=O)N[C@@H](CC(C)C)C(=O)N[C@@H](CCCNC(=N)N)C(=O)N[C@@H](Cc1c[nH]c2ccccc12)C(=O)N[C@@H](C)C(=O)N[C@@H](CO)C(=O)N[C@@H](CCCNC(=N)N)C(=O)N[C@@H](Cc1c[nH]c2ccccc12)C(=O)N[C@@H](Cc1ccccc1)C(=O)N[C@@H](CO)C(=O)N[C@@H](CCCNC(=N)N)C(=O)N[C@@H](Cc1c[nH]c2ccccc12)C(=O)N[C@@H](C)C(=O)N[C@@H](Cc1c[nH]c2ccccc12)C(=O)N[C@@H](Cc1c[nH]c2ccccc12)C(=O)N[C@@H](CCCNC(=N)N)C(=O)O [VEPEP-9]
ELISA signal for CAS9 protein expression ([1]; CAS9-expressing plasmid 0.5 μg): about 4 times the background
ELISA signal for CAS9 protein expression ([1]; CAS9 mRNA 0.5 μg): about 4 times the background
decrease of serum levels of PSCK9 [2, 15]: 13%
decrease of serum levels of PSCK9 ([2]; day 3): 29%
decrease of serum levels of PSCK9 ([2]; day 6): 31%
decrease of serum levels of PSCK9 ([2]; day 10): 27%
decrease of serum levels of PSCK9 ([2]; day 14): 25%
decrease of serum levels of PSCK9 ([2]; day 20): 24%
PI ([11]; Cas9:gRNA, molar ratio 20/1): 0.58 and 0.58 ± 0.1
Size ([11]; Cas9:gRNA, molar ratio 20/1): 170±10 nm
zeta ([11]; Cas9:gRNA, molar ratio 20/1): 39 ± 8 MV
Pt ([11]; Cas9, molar ratio 20/1): 0.45 ± 0.1
Size ([11]; Cas9, molar ratio 20/1): 280 ± 20 nm
zeta ([11]; Cas9, molar ratio 20/1): 32 ± 5 mV
formation of stable particles with preloaded CAS9:gRNA complex ([11]; molar ratio 10:1): neither CADY nor VEPEP-9 formed stable particles
mean indel frequencies [5, 16]: about 30%
mean indel frequencies ([5]; CAS9 protein/gRNA): about 20%
mean indel frequencies [12]: 35-40%
Mean indel Frequency ± S.E.M ([13]; JURICAT, CAS9/sgRNA 25 nM): 21% and 21 ± 7%
Mean indel Frequency ± S.E.M ([13]; JURKAT, CAS9/sgRNA 50 nM): 21 ± 5%
Mean indel Frequency ± S.E.M ([13]; K562, CAS9/sgRNA 25 nM): 29% and 29 ± 7%
Mean indel Frequency ± S.E.M ([13]; K562, CAS9/sgRNA 50 nM): 25 ± 5%
Mean indel Frequency ± S.E.M ([13]; U2OS, CAS9/sgRNA 25 nM, 20:1): 27% and 27 ± 3%
Mean indel Frequency ± S.E.M ([13]; U2OS, CAS9/sgRNA 50 nM): 30 ± 6%
CAS9 expression ([6]; day 10, brain): CAS9 expression was observed
CAS9 expression ([6]; day 10, liver): CAS9 expression was observed
CAS9 expression ([6]; day 10, lymph node): CAS9 expression was observed
ELISA signal for CAS9 protein expression ([6]; liver): > 8 times that of background
CAS9 protein expression [6]: Little to no increase
reduction of EGFP-positive cells [8]: 22%
decrease in EGFP expression ([8]; HEK): 58%
reduction of EGFP-expressing cells / loss of EGFP expression [8]: no change in EGFP expression
decrease in EGFP expression ([8]; U2OS): 55%
loss of EGFP expression [8]: 5%
formation of stable nanoparticles [9]: able to form stable nanoparticles
Mean diameter [9, 17]: ~120 nm
mean particle size ([9]; with preloaded CAS9-protein/gRNA complex): 210±20
mean indel frequencies [10]: about 10%
Mean indel Frequency ± S.E.M ([14]; JURKAT, EGFP): 15 ± 8%
Mean indel Frequency ± S.E.M ([14]; JURKAT, EMX1): 10 ± 2%
Mean indel Frequency ± S.E.M ([14]; U2OS, EGFP, 25 nM each complex): 32 ± 4%
Mean indel Frequency ± S.E.M ([14]; U2OS, EMX1): 31 ± 5%
